{
  "source": "patent US11247970B2",
  "about": "“Selective inhibition of gluconeogenic activity” (Dana-Farber Cancer Institute, Inc., priority 2017, dated 2022)",
  "key": {"[1]": {"biological_target": "T1, PGC-1α (Mus musculus, UniProt O70343)", "T1 sequence (O70343 1-797)": "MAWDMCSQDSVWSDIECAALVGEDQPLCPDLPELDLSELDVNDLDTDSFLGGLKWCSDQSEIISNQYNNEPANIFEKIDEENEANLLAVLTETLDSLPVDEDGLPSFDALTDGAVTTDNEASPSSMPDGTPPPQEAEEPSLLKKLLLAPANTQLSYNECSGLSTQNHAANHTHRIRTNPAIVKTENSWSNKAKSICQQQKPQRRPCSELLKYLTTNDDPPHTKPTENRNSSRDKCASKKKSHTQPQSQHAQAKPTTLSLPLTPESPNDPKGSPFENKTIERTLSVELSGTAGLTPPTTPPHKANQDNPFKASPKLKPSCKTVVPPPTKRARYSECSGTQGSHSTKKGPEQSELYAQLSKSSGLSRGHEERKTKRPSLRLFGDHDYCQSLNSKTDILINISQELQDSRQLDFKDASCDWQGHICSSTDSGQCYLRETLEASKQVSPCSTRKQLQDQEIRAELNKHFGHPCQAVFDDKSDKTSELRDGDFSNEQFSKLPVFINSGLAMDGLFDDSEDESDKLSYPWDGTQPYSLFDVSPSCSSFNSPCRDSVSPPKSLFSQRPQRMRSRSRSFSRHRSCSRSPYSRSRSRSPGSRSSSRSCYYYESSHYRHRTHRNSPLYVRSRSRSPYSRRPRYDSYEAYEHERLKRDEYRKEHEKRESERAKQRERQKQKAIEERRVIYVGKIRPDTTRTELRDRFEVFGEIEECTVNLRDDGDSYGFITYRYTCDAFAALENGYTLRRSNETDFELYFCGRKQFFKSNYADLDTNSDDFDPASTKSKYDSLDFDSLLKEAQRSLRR", "test": "Western blot of PGC-1α acetylation in primary hepatocytes", "type": "cell-based", "design": "expressed in transfected cells; host or cells: primary hepatocytes of C57BL/6 mice infected with Ad-PGC-1α and Ad-GCN5", "procedure": "For measurement of acetylation, gene expression and glucose production SR-18292 ([…]) was added to cells overnight and fresh compound was added the following day for additional 3 h before collecting the cells (for total of ˜18 h treatment). Where insulin and glucagon stimulation were performed, the medium was changed to starvation medium (DMEM, 0.2% BSA, 2 mM sodium pyruvate, and 1% penicillin/streptomycin) with fresh compound for the last 3 h and cells were stimulated with either 100 nM insulin or 200 nM glucagon for an extra 1.5 h. For glucose measurements following PGC-1α over expression cells were incubated for the last 3 h in glucose-free medium (phenol-red/glucose free DMEM, 0.2% BSA, 2 mM sodium pyruvate and 20 mM sodium lactate or 10 mM glycerol in case glycerol was used as substrate). For glucose measurements following glucagon stimulation cells were incubated for the last 4 h in the same glucose-free medium that also contained glucagon (200 nM). The glucose level in the medium was measured using a glucose assay kit from Eton Bioscience Inc. by adding […] of assay buffer to […] of medium followed by 15 min incubation at 37° C. Absorbance was measured at 490 nm.\nFor PGC-1α acetylation detection in hepatocytes cells were infected with Ad-PGC-1α and Ad-GCN5. […]"}, "[2]": {"system": "HFD fed mice", "test": "Chronic 14 day treatment of HFD mice", "type": "in vivo", "procedure": "FIG. 57 is a plot monitoring body weight over a period of days. Mice fed HFD for 6 weeks were injected daily with SR-18292 for a total of 14 days and body weight was monitored during the treatment.\nFIG. 58 is a series of bar graphs monitoring blood glucose. Mice were fasted at day 3 and 13 and fasting blood glucose was measured at day 4 and 14. Fed blood glucose was also measured at day 10. n=10, *P<0.05.\nIn addition, liver toxicity, as measured by serum levels of alanine transaminase (ALT), aspartate aminotransferase (AST), lactate dehydrogenase (LDH) and bilirubin, was not observed in mice treated with SR-18292 (Table 6). […] To assess the contribution of PGC-1α in mediating the in vivo effects of SR-18292, hepatic PGC-1α in Lep^ob/ob mice was depleted using shRNA and observed a significant reduction in basal blood glucose concentrations compared to control. […] To fully assess the effects of SR-18292 on whole body glucose homeostasis and insulin resistance, a glucose tolerance test (GTT) and insulin tolerance test (ITT) were performed following the same protocol used to determine fasting blood glucose. […] As expected, insulin levels after GTT were lower in the treated group (FIG. 51). […] To test if SR-18292 chronic treatment will cause similar anti-diabetic effects, mice were treated for a period of 14 days."}},
  "data": [
    {"smiles": "Cc1ccc(CN(CC(O)COc2cccc3[nH]ccc23)C(C)(C)C)cc1", "note": "(stereo not drawn) [SR-18292, 1-((1H-indol-4-yl)oxy)-3-(tert-butyl(4-methylbenzyl)amino)propan-2-ol]", "values": [
      {"measurement": "PGC-1α acetylation", "setting": "[1]; primary hepatocytes, Ad-PGC-1α and Ad-GCN5, 18 h", "value": "increased PGC-1α acetylation"},
      {"measurement": "PGC-1α acetylation in presence of deacetylase inhibitors", "setting": "[1]; with Ex-527 (SIRT1 inhibitor) and Trichostatin A", "value": "increased acetylation of PGC-1α even in the presence of Ex-527"},
      {"measurement": "ability to reduce blood glucose", "setting": "[2]; 14 days daily treatment", "value": "sustained"},
      {"measurement": "body weight", "setting": "[2]; 14 days daily treatment", "value": "without resulting in changes in body weight"},
      {"measurement": "toxicity by serum ALT and AST, H&E staining of liver, proinflammatory genes", "setting": "[2]; 14 days treatment", "value": "did not cause any signs of toxicity"},
      {"measurement": "H&E staining of liver slices assessed by pathologist", "setting": "[2]; after 14 days, n=10", "value": "no sign of toxicity was observed"},
      {"measurement": "liver triglycerides and cholesterol levels", "setting": "[2]; after 14 days, n=10", "value": "not altered"},
      {"measurement": "serum ALT and AST levels", "setting": "[2]; after 14 days, n=10", "value": "not altered"},
      {"measurement": "serum lactate, β-hydroxybutyrate and cholesterol levels", "setting": "[2]; after 14 days, n=10", "value": "not altered"}
    ]}
  ]
}
